Experiments:
[1] = test system: human HeLa cervical cancer cells; test: Implanted HeLa cervical cancer tumor growth in mice, CORT125134 and paclitaxel; assay type: in vivo
Method: Suspensions of human HeLa cervical cancer cells were injected subcutaneously into the right flank of 5-6 week old immunosuppressed female mice (BALB/c nude), five million cells per mouse. Tumors were allowed to grow until they reached a volume of 100-200 mm^3. Mice were then grouped into five groups, ten (10) per group. Group 1 was dosed with the paclitaxel vehicle (sterile saline) intravenously (i.v.) every 4 days and the CORT125134 vehicle orally (p.o.) (10% DMSO, 0.1% Tween 80 and 89.9% HPMC (0.5%), 10 ml/kg) every 4 days. Group 2 was dosed with paclitaxel (7.5 mg/kg) i.v. every 4 days. Group 3 was dosed with paclitaxel i.v. every 4 days and with CORT125134 (30 mg/kg) p.o. the day before the administration of paclitaxel and the same day as the administration of paclitaxel. Group 4 received paclitaxel (15 mg/kg) i.v. every 4 days. Group 5 received paclitaxel (15 mg/kg) i.v. every 4 days and CORT125134 (30 mg/kg) p.o. the day before and the day of paclitaxel (15 mg/kg) i.v. administration.
The longest (L) and shortest (S) diameters of the tumors were measured three times a week with electronic calipers and tumor volume was calculated using the formula for an ellipsoid sphere: S^2×L×(0.5). The tumor growth data are shown in FIG. 1, in which the mean tumor volume for each group of mice is plotted against the number of days of tumor growth since initiation of the treatment. All treatments provide benefit compared to vehicle alone.

[2] = test system: MDA-MB-231 cells; test: Triple negative breast cancer (TNBC) mouse xenograft model, CORT125134 with paclitaxel; assay type: in vivo, mice
Method: MDA-MB-231 cells (10 million cells per mouse) were injected orthotopically in the right mammary fat pad in groups of female Balb/c nude mice. When the tumors reached a volume of 100-200 mm^3, the mice were randomized into groups of 10 and treatment was initiated. Mice were treated as follows: group 1 received vehicle daily, group 2 received paclitaxel 5 mg/kg i.v. every 4 days, group 3 received paclitaxel 5 mg/kg i.v. every 4 days and CORT125134 30 mg/kg p.o. daily. Tumor volumes were measured 3 times a week in 2 dimensions using a caliper and the volume expressed in mm^3 using the formula V=0.5 a×b2 where a and b are the long and short diameters of the tumor, respectively. Dosing was continued for 28 days, but any mouse in poor condition or with a tumor exceeding 3000 mm^3 was terminated. For comparison between two groups an independent sample t-test was used; for comparison among three or more groups a one-way ANOVA was performed followed by multiple comparison procedures. A p-value <0.05 was considered to be statistically significant. The effect of CORT125134 in combination with paclitaxel in a triple negative breast cancer (TNBC) mouse xenograft model is shown in FIG. 2. Data represent mean+SEM.

[3] = test system: SK-OV-3 cells; test: Ovarian cancer mouse xenograft model, CORT125134 with gemcitabine/carboplatin; assay type: in vivo, mice
Method: CORT125134 was administered intraperitoneally (i.p.) on days 43, 44, 50 and 51, and gemcitabine/carboplatin was administered i.p. on days 44 and 51. Data represent mean values. SK-OV-3 cells (5 million cells per mouse) were injected in the right flank of female Balb/c nude mice. When tumors reached a volume of 200 mm^3 the mice were randomized into groups of 10 and treatment was initiated. Mice were treated as follows: group 1 received vehicle on dosing days 1, 2, 8 and 9, group 2 received gemcitabine (80 mg/kg i.p.) and carboplatin (15 mg/kg i.p.) on dosing days 2 and 9 and group 3 received gemcitabine/carboplatin in the same regimen as group 2, +CORT125134 (20 mg/kg i.p.) on dosing days 1, 2, 8 and 9. Tumor volumes were measured 3 times a week and tumor volumes were calculated as detailed above. Any mouse in poor condition or with a tumor exceeding 2000 mm^3 was terminated. The results were analyzed as indicated in Example 2 above.

[4] = test system: 22Rv1 cells; test: Prostate cancer (CRPC) mouse xenograft model, CORT125134 with castration; assay type: in vivo; conditions: CORT125134 30 mg/kg p.o. daily for 21 days
Method: 22Rv1 cells (10 million cells per mouse) were injected in the right flank of male Balb/c nude mice. When the tumors reached a volume of 100-200 mm^3 the mice were randomized into groups of 10 and then 2 of the 3 groups were castrated. Treatment was initiated the day after castration as follows: group 1 (not castrated) received vehicle, group 2 (castrated) received vehicle, and group 3 (castrated) received CORT125134 30 mg/kg orally (p.o.) daily for 21 days. Tumor volumes were measured 3 times a week as described previously. Any mouse in poor condition or with a tumor exceeding 3000 mm^3 was terminated. The results were analyzed as indicated in Example 2 above. Data represent mean+SEM.

[5] = test system: cervical cancer; test: Treating a patient having cervical cancer with SGRM and a chemotherapeutic agent; assay type: in vivo, human; conditions: CORT125134 200 mg once a day for eight weeks with nab-paclitaxel 80 mg per square meter i.v. days 1, 8, 15 of 28-day cycle; one patient
Method: A patient complains of upper abdomen pain. They are experiencing loss of appetite, nausea and vomiting episodes, and significant weight loss. […] The suspected tumor is confirmed by histological analysis to be a cancerous tumor. The patient is treated with CORT125134 at a dose of 200 mg once a day for eight weeks in combination with an intravenous infusion of nab-paclitaxel at a dose of 80 mg per square meter of body-surface area as an intravenous infusion over 30 minutes on days 1, 8, and 15 of every 28-day cycle. Tumor load is monitored using enhanced MRI before, during and after the treatment. The imaging indicate that tumor size is decreasing, and the reduction is more than 50% at the end of the treatment period.

[6] = paclitaxel 5 mg/kg i.v. every 4 days + CORT125134 30 mg/kg p.o. daily
[7] = gemcitabine/carboplatin + CORT125134 20 mg/kg i.p.

Row | Compound | p, tumor growth comparison Group 3 vs Group 5 ([1]; CORT125134 30 mg/kg + paclitaxel 15 mg/kg (Group 5) vs CORT125134 30 mg/kg + paclitaxel 7.5 mg/kg (Group 3)) | p, tumor growth comparison Group 2 vs Group 3 ([1]; CORT125134 30 mg/kg p.o. day before and day of paclitaxel + paclitaxel 7.5 mg/kg i.v. every 4 days (Group 3) vs paclitaxel 7.5 mg/kg alone (Group 2)) | p, tumor growth comparison Group 4 vs Group 5 ([1]; CORT125134 30 mg/kg p.o. day before and day of paclitaxel + paclitaxel 15 mg/kg i.v. every 4 days (Group 5) vs paclitaxel 15 mg/kg alone (Group 4)) | tumor growth, combination of paclitaxel and CORT125134 compared with paclitaxel alone ([1]; CORT125134 30 mg/kg p.o. with paclitaxel 7.5 or 15 mg/kg i.v., either dose of paclitaxel) | p, combination compared to paclitaxel alone [2, 6] | p, combination compared to vehicle treated mice [2, 6] | effect on tumor growth, combination of paclitaxel and CORT125134 ([2]; paclitaxel 5 mg/kg i.v. every 4 days + CORT125134 30 mg/kg p.o. daily, 28 days) | effect on tumor growth, combination of gemcitabine/carboplatin with CORT125134 ([3]; gemcitabine 80 mg/kg + carboplatin 15 mg/kg i.p. dosing days 2, 9 + CORT125134 20 mg/kg i.p. dosing days 1, 2, 8, 9) | p, combination compared to vehicle [3, 7] | p, combination compared with carboplatin/gemcitabine [3, 7] | effect on tumor growth, CORT125134 in castrated mice compared to mice not castrated [4] | p, CORT125134 in castrated mice compared to mice not castrated [4] | p, castration and CORT125134 vs castration alone ([4]; castrated mice) | tumor growth, combination of castration and CORT125134 compared with castration alone ([4]; castrated mice) | reduction of tumor size at the end of the treatment period (enhanced MRI) [5] | p, tumor growth comparison Group 1 vs Group 2 ([1]; paclitaxel 7.5 mg/kg i.v. every 4 days (Group 2) vs vehicle (Group 1)) | p, tumor growth comparison Group 1 vs Group 4 ([1]; paclitaxel 15 mg/kg i.v. every 4 days (Group 4) vs vehicle (Group 1)) | p compared with vehicle treated mice, paclitaxel alone ([2]; paclitaxel 5 mg/kg i.v. every 4 days) | effect on tumor growth, paclitaxel alone ([2]; paclitaxel 5 mg/kg i.v. every 4 days, 28 days)
1 | Cn1cc(S(=O)(=O)N2CCC3=Cc4c(cnn4-c4ccc(F)cc4)C[C@]3(C(=O)c3cc(C(F)(F)F)ccn3)C2)cn1 [CORT125134, (R)-(1-(4-fluorophenyl)-6-((1-methyl-1H-pyrazol-4-yl)sulfonyl)-4,4a,5,6,7,8-hexahydro-1H-pyrazolo[3,4-g]isoquinolin-4a-yl)(4-(trifluoromethyl)pyridin-2-yl)methanone] | 0.0009 | 0.008 | <0.0001 | more effective than paclitaxel alone | < 0.05 | < 0.05 | significant inhibition of tumor growth | significant inhibition of tumor growth | < 0.001 | < 0.01 | inhibited tumor growth | < 0.0001 | < 0.05 | more effective than castration alone | more than 50% | – | – | – | –
2 | CC(=O)O[C@H]1C(=O)[C@@]2(C)[C@H]([C@H](OC(=O)c3ccccc3)[C@]3(O)C[C@H](OC(=O)[C@H](O)[C@@H](NC(=O)c4ccccc4)c4ccccc4)C(C)=C1C3(C)C)[C@]1(OC(C)=O)CO[C@@H]1C[C@@H]2O [paclitaxel, reference compound] | – | – | – | – | – | – | – | – | – | – | – | – | – | – | – | 0.0281 | 0.0006 | not significant | ineffective
